Data as given in patent US20020127228A1, “PGT and apoptosis” (WELFIDE CORPORATION, priority 1998, published 2002).

What was measured:
SAPK/JNK = SAPK/JNK activation in PC12 cells after NGF withdrawal, Western blot; assay type: cell-based, rat; design: key to Degree of luminescence: +++ is extremely strong; + is confirmed luminescence; ± is poor luminescence; details: for Degree of luminescence: phosphorylated JNK band
Description: 4) Intercellular signals via SAPK/JNK Stress-activated protein kinase/Jun N-terminal kinase (abbreviated SAPK/JNK) is associated with apoptosis induction. Thus, intercellular signals within cells via SAPK/JNK were investigated based upon effects with respect to variations in SAPK/JNK activity.
The present experiment was performed with Western blot analysis. Individual additives were added to cell culturing medium for PC12 cells in accordance with the aforementioned experiment. Culturing was performed for 1-4 hrs after withdrawal of NGF. PC12 cells were lysed with a buffer solution, centrifuged, and the supernatant of cell lysate was prepared. After said supernatant was incubated with JNK 1 polyclonal antibodies (Santa Cruz Biotechnology) at 4° C. for 1 hr. Protein A sepharose was added to it. The resultant was incubated for 1 hr and the immunoprecipitate as described below was provided. […] of cell lysate was conducted with SDS-PAGE electrophoresis, and transferred to a nylon membrane (Amersham Pharmacia Biotech). Blotting of phosphorylated (active) JNK antibodies (Santa Cruz Biotechnology) was performed with this membrane, and bands were detected in accordance with the instruction manual. Intercellular signals within cells were amplified by chemiluminescence and auto radioactivity methods (FCL, Amersham Pharmacia Biotech).

NRK52E cells [1] = assay: Apoptosis induced by NO donor GSNO in NRK52E kidney cells; assay type: cell-based, rat
Description: (§1) 1) Apoptosis was induced by NO (nitrogen monoxide) in kidney cells. NRK52E cells, which are established from a rat renal tubule epithelial cell line, mainly derived from distal were cultured for 24 hours with a chamber slide that was coated with type-I collagen. Afterwards, the cultured medium was changed to a serum-free medium, and apoptosis was induced by addition of NOC12 (0.4 mM) or S-nitroso L-glutathione (GSNO: 1 mM), which are NO donors.
(§2) 4) Inhibitory effect of PGE1 to the induction of apoptosis in kidney cells was investigated PGE1 was added simultaneously with the addition of a NO donor to a final concentration of 1 or 10 μM. After 24 hrs, cells were fixed with a 1% glutaraldehyde solution and stained with Hoechst 33342. Three visual fields were selected arbitrarily per slide, and the ratio of the cells count where nuclear fragmentation and condensation appeared was calculated with respect to the total cells in the field (magnification: 400x). The n was 5.
5) The relationship between PGT inhibitors and kidney cell apoptosis induced by GSNO was examined. With a final concentration of BrCG, which is a PGT inhibitor, of 60 μM, manners other than simultaneous addition with GSNO and PGE1 were in accordance with the aforementioned ones in 4). The PGE1 final concentration was 1 μM. The n was 3.
1) Drugs having suppressing activity on apoptosis inducted in kidney cells by an NO donor were investigated. PGK1 and bicyclo PGE2 were used as test drugs, but other manners were in accordance with Experiment 8. The final concentration of the test drugs was 1 μM. The n was 5.
2) It was investigated the effects of a PGT inhibitor on the apoptosis-suppressing activity of PGK1 and bicyclo PGE2 in kidney cells. With a final concentration of BrCG, which is a PGT inhibitor, of 60 μM, manners other than simultaneous addition of GSNO and test drugs were in accordance with the aforementioned methods in 1). The n was 4.

[2] = tested on: rat cerebral cortical neurons; assay: Apoptosis induced by amyloid beta peptide in rat cerebral cortical neurons, Hoechst 33342; assay type: cell-based
Description: The cortex region of embryonic day 17 or 18 rat cerebrum was extracted on ice. Cells were dispersed using a neuron dispersal solution (Sumilon) after sectioning. Afterwards, cells were dispersed to a density of 1.5×10^5 cells/cm^2 in a culturing flask that was coated with polyethyleneimine beforehand. After 4 days of culturing, the following experiment was provided. Therefore, as the culture medium, Neurobasal medium (Gibco) adding with B27 supplement (1/50 volume), 2-mercaptoethanol (27.5 μM), L-glutamic acid (25 μM), and glutamine (0.5 mM) was used.
Amyloid beta peptide 25-35 (Aβ25-35) was dissolved in distilled water to a concentration of 1 mM, incubated for 1 week at about 37° C., and Aged-Aβ25-35 was prepared. The induction of apoptosis in neuron was performed by the replacement of the aforementioned culture medium (with the exception of L-glutamicacid) containing 10 μM Aged-Aβ25-35.
4) It was investigated that the suppressing effect of PGE1 on apoptosis induced by amyloid beta peptide. After dissolution of PGE1 in ethanol, when the aforementioned 2) Aged-Aβ25-35 was added to the culture medium, simultaneously PGE1 solution was added to it. The final concentration thereof was 1 μM.
Cells were washed with PBS (−) at 24 hrs after induction of apoptosis and fixed for 30 mins at room temperature using a 1% glutaraldehyde solution (in PBS). Next, cell were washed with PBS (−) two times and followed by incubation with 1 mM Hoechst 33342 solution (in PBS) for 2 mins. Afterwards, observation of nuclear chromatin morphology was conducted using a fluorescence microscope with 4 arbitrary visual fields. Normal cells and apoptotic cells (cell where chromatin fragmentation or condensation was appeared) were counted, and the ratio was calculated as the incidence of apoptosis. The n was 3.
6) The relationship between PGT inhibitors and apoptosis induced by amyloid beta peptide was investigated. BrCG, which is a PGT inhibitor, with a final concentration of 60 μM was added simultaneously with PGE1 but other manners were in accordance with the aforementioned ones in 1)-5).
It was investigated that the influence of PGT antisense on the inhibitory effect of PGE1 against apoptosis induced by amyloid beta peptide. PGT antisense was used as it is with regard to the oligonucleotide in Experiment 3. The addition concentration thereof was 1.5 μM. Incidence of apoptosis was performed in accordance with Experiment 5. Then was 3.
1) Drugs having an inhibitory activity against induction of apoptosis by amyloid beta peptide were investigated. After dissolving test drugs (PGE1, PGK1, PGK2, and bicyclo PGE2) in ethanol, when Aged-Aβ25-35 was added to the culture medium, simultaneously test drug solution were added to it. But other manners were in accordance with Experiment 5. Ratio of normal cells and apoptotic cells allowed calculation of the rate of inhibition of apoptosis induction.

NRK52E cells [3] = assay: Apoptosis induced by NO donor NOC12 in NRK52E kidney cells; assay type: cell-based, rat; details: NOC12 0.4 mM, 24 hrs, n 5
Description: as §1, §2

SMILES: CCCCC[C@H](O)/C=C/[C@H]1[C@H](O)CC(=O)[C@@H]1CCCCCCC(=O)O [PGE1, prostaglandin E1]
- Effect on SAPK/JNK activation (in words) (SAPK/JNK; 1 hr after NGF withdrawal): the activation was suppressed
- Degree of luminescence (SAPK/JNK; PGE1 0.1 μM): +
- Degree of luminescence (SAPK/JNK; PGE1 1 μM): ±
- Effect on apoptosis in kidney cells (in words) (NRK52E cells [1]; NO donor GSNO): suppressed induction of apoptosis in kidney cells
- Incidence of apoptosis (%) (NRK52E cells [1]; Table 11, GSNO 1 mM, PGE1 1 μM, 24 hrs, n 5): 10 ± 2 %
- Incidence of apoptosis (%) (NRK52E cells [1]; Table 11, GSNO 1 mM, PGE1 10 μM, 24 hrs, n 5): 11 ± 3 %
- Incidence of apoptosis (%) (NRK52E cells [1]; Table 12, GSNO, PGE1 1 μM, n 3): 8 ± 2%
- Effect on apoptosis induced by amyloid beta peptide (in words) [2]: suppressed apoptosis inducted by amyloid beta peptide
- Incidence of apoptosis (%) ([2]; Experiment 5, PGE1 1 μM, 10 μM Aged-Aβ25-35, 24 hrs, n 3): 23 ± 2 %
- Incidence of apoptosis (%) ([2]; Experiment 6, PGE1, Aged-Aβ25-35, n 3): 23 ± 2 %
- Inhibition of apoptosis induction (%) ([2]; Experiment 7, test drug added with Aged-Aβ25-35): 38.2%
- Incidence of apoptosis (%) (NRK52E cells [3]; PGE1 1 μM): 11 ± 2 %
- Incidence of apoptosis (%) (NRK52E cells [3]; PGE1 10 μM): 6 ± 1 %
